Patent publication US20260234139A1, “PGDH INHIBITORS AND METHODS OF MAKING AND USING” (Epirium Bio Inc., priority 2023, published 2026)

What was measured:
15-PGDH/HPGD = molecular target: T1, 15-PGDH/HPGD (Homo sapiens, UniProt P15428); experiment: hPGDH inhibitor screening biochemical assay; conditions: 10 nM enzyme, 15 μM Prostaglandin E2, 0.25 mM NAD, fluorescence ex/em 340/485 nm
T1 construct: purchased R&D System 5660-DH
T1 sequence (P15428 1-266): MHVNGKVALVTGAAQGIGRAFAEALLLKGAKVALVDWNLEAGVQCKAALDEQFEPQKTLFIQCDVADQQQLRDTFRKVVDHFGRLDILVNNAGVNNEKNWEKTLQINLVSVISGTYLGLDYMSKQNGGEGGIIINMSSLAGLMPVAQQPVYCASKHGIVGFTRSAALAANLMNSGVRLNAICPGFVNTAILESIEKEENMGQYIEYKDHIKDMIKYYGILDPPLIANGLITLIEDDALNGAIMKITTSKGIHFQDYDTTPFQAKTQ
Description: A hydroxyprostaglandin dehydrogenase inhibition screening biochemical assay can be performed to assess the synthesized inhibitors provided herein. Provided herein is an exemplary biochemical assay for hPGDH inhibitor screening.
The in vitro biochemical assay can be performed in white, 384 plates in total 20 μl reaction volume consisting of 10 nM of 15-PGDH/HPGD (R&D System #5660-DH), 15 μM Prostaglandin E2 (Sigma, Cat #P5640-10 MG) and 0.25 mM B-Nicotinamide adenine dinucleotide sodium salt (Sigma, Cat #N0632-5G) made in reaction buffer (50 mM Tris-HCl, pH 7.5, 0.01% Tween 20) at 10-point dose response curve for test/tool compounds. Briefly, 5 μl (4×) of compounds solution and 5 μl (final concentration, 10 nM) of enzyme solution is added to white 384 well plates and incubated for 10 mins at 37° C. 5 μl (4×) of Prostaglandin E2 and 5 μl (4×) of β-Nicotinamide adenine dinucleotide sodium salt is added to the wells and incubated for 10 mins at room temperature. Fluorescence is recorded at ex/em=340 nm/485 nm.

A549 = A549 EC50 (cell assay, method not described); format: cell-based

Row | Structure (SMILES) | IC50 (15-PGDH/HPGD) | EC50 (A549; Homo sapiens, A549, A549) | EC50 (A549; A549)
1 | O=C(NC[C@H](O)c1cnc2c(cnn2-c2cccc(-c3nnc[nH]3)c2)c1)C1CC1 [Compound 39A] | ≥ 1000 nM | ≥ 1000 nM | –
2 | O[C@@H](c1cnc2c(ccn2-c2cccc(-c3nnc[nH]3)c2)c1)C1CCC1 [Compound 10B] | < 100 nM | < 100 nM | –
3 | O=C(O)c1ccc(-n2ccc3nc([C@H](O)COC4CCC4)cnc32)cc1 [Compound 47B] | < 100 nM | < 100 nM | –
4 | O=C(O)c1ccc(-n2ncc3cc(C(O)C4CC(F)(F)C4)cnc32)cc1 (stereo in doubt) [Compound 45B, (S)-4-(5-((3,3-difluorocyclobutyl)(hydroxy)methyl)-1H-pyrazolo[3,4-b]pyridin-1-yl)benzoic acid] | < 100 nM | < 100 nM | –
5 | CC(C)NC[C@@H](O)c1cnc2c(ccn2-c2cccc(-c3nnc[nH]3)c2)n1 [Compound 22B] | 100 to 1000 nM | ≥ 1000 nM | –
6 | O=C(O)c1ccc(-n2ccc3nc([C@@H](O)COCC4CC4)cnc32)cc1 [Compound 112A] | < 100 nM | ≥ 1000 nM | –
7 | COC(C)(C)C[C@@H](O)c1cnc2c(ccn2-c2cccc(-c3nnc[nH]3)c2)c1 [Compound 54A] | < 100 nM | < 100 nM | –
8 | CCCCC(OC)c1cnc2c(ccn2-c2cc(Cl)cc(-c3nnc[nH]3)c2)c1 (stereo not shown) [Compound 16] | 100 to 1000 nM | 100 to 1000 nM | –
9 | CC(C)OC[C@H](O)c1cnc2c(cnn2-c2ccc3nc(N4CCOCC4)nn3c2)c1 [Compound 60B] | ≥ 1000 nM | 100 to 1000 nM | –
10 | CC(C)OC[C@@H](O)c1cnc2c(cnn2-c2ccc(CCC(=O)O)cc2)c1 [Compound 69A] | < 100 nM | < 100 nM | –
11 | CCOC1([C@@H](O)c2cnc3c(cnn3-c3ccc(C(=O)O)cc3)c2)CCC1 [Compound 85B] | ≥ 1000 nM | ≥ 1000 nM | –
12 | CC(C)OCC[C@@H](O)c1cnc2c(cnn2-c2cccc(-c3nnc[nH]3)c2)c1 [Compound 44A] | < 100 nM | < 100 nM | –
13 | CC(C)(C)OC[C@@H](O)c1cnc2c(ccn2-c2cccc(-c3nnc[nH]3)c2)n1 [Compound 26B] | < 100 nM | < 100 nM | –
14 | CCOC1([C@H](O)c2cnc3c(cnn3-c3ccc(C(=O)O)cc3)c2)CCC1 [Compound 85A] | 100 to 1000 nM | ≥ 1000 nM | –
15 | O=C(O)c1ccc(-n2ncc3cc([C@@H](O)COC4CCC4)cnc32)cc1 [Compound 42A, (R)-4-(5-(2-cyclobutoxy-1-hydroxyethyl)-1H-pyrazolo[3,4-b]pyridin-1-yl)benzoic acid] | < 100 nM | ≥ 1000 nM | –
16 | CC(C)(C)OC[C@H](O)c1cnc2c(ccn2-c2cccc(-c3nnc[nH]3)c2)n1 [Compound 26A] | < 100 nM | 100 to 1000 nM | –
17 | CCOC1([C@@H](O)c2cnc3c(cnn3-c3ccc4nc(N5CCOCC5)nn4c3)c2)CC1 [Compound 62B] | 100 to 1000 nM | ≥ 1000 nM | –

Row | Structure (SMILES) | IC50 (15-PGDH/HPGD) | EC50 (A549; Homo sapiens, A549, A549) | EC50 (A549; A549)
18 | O[C@H](c1cnc2c(cnn2-c2cccc(-c3nnc[nH]3)c2)c1)C1CCOCC1 [Compound 52A] | < 100 nM | 100 to 1000 nM | –
19 | CC(C)OCC[C@H](O)c1cnc2c(cnn2-c2cccc(-c3nnc[nH]3)c2)c1 [Compound 44B] | < 100 nM | 100 to 1000 nM | –
20 | CC(C)C[C@@H](O)C(O)c1cnc2c(ccn2-c2cccc(-c3nnc[nH]3)c2)c1 (stereo in doubt) [Compound 3A, (1R,2R)-4-methyl-1-[1-[3-(4H-1,2,4-triazol-3-yl)phenyl]pyrrolo[2,3-b]pyridin-5-yl]pentane-1,2-diol] | < 100 nM | < 100 nM | –
21 | O[C@@H](c1cnc2c(cnn2-c2cccc(-c3nnc[nH]3)c2)c1)[C@@H]1CCOC1 [Compound 68A] | < 100 nM | < 100 nM | –
22 | CC(C)(C)OC[C@@H](O)c1cnc2c(cnn2-c2cccc(-c3nnc[nH]3)c2)c1 [Compound 32B] | < 100 nM | < 100 nM | –
23 | CCOC(C)(C)C(O)c1cnc2c(cnn2-c2cccc(-c3nnc[nH]3)c2)c1 (single isomer, unassigned) [Compound 34A] | < 100 nM | – | < 100 nM
24 | O[C@@H](c1cnc2c(cnn2-c2cccc(-c3nnc[nH]3)c2)c1)C1CC2CC2C1 (stereo partly shown) [Compound 50A] | < 100 nM | < 100 nM | –
25 | CC(C)NC[C@H](O)c1cnc2c(cnn2-c2cccc(-c3nnc[nH]3)c2)c1 [Compound 27A, (R)-1-(1-(3-(4H-1,2,4-triazol-3-yl)phenyl)-1H-pyrazolo[3,4-b]pyridin-5-yl)-2-(isopropylamino) ethan-1-ol] | ≥ 1000 nM | ≥ 1000 nM | –
26 | O[C@@H](c1cnc2c(cnn2-c2cccc(-c3nnc[nH]3)c2)c1)C1COC1 [Compound 28A] | < 100 nM | < 100 nM | –
27 | O=C(O)c1ccc(-n2ncc3cc([C@H](O)COCC4(C(F)(F)F)CC4)cnc32)cc1 [Compound 113B] | < 100 nM | 100 to 1000 nM | –
28 | O=C(O)c1ccc(-n2ncc3cc([C@@H](O)COC4(C(F)(F)F)CCC4)cnc32)cc1 [Compound 115A] | < 100 nM | 100 to 1000 nM | –
29 | CCNCC(O)c1cnc2c(cnn2-c2cccc(-c3nnc[nH]3)c2)c1 (stereo not shown) [Compound 21] | ≥ 1000 nM | ≥ 1000 nM | –
30 | CC(C)OCC(O)c1cnc2c(cnn2-c2cccc(-c3nnc[nH]3)c2)c1 (single isomer, unassigned) [Compound 18B] | < 100 nM | 100 to 1000 nM | –
31 | CCOC(C)(C)[C@@H](O)c1cnc2c(cnn2-c2ccc(C(=O)O)cc2)c1 [Compound 53B] | < 100 nM | < 100 nM | –
32 | CC(C)C[C@@H](O)[C@@H](O)c1cnc2c(ccn2-c2cccc(-c3nnc[nH]3)c2)c1 [Compound 3D, (1S,2R)-4-methyl-1-[1-[3-(4H-1,2,4-triazol-3-yl)phenyl]pyrrolo[2,3-b]pyridin-5-yl]pentane-1,2-diol] | < 100 nM | – | < 100 nM
33 | CCOC1([C@H](O)c2cnc3c(cnn3-c3cccc(-c4nnc[nH]4)c3)c2)CCC1 [Compound 83A] | 100 to 1000 nM | 100 to 1000 nM | –
34 | O[C@@H](c1cnc2c(cnn2-c2cccc(-c3nnc[nH]3)c2)c1)[C@H]1CCOC1 [Compound 68C] | < 100 nM | < 100 nM | –

More lines, now with the values ahead:

Row | IC50 (15-PGDH/HPGD) | EC50 (A549; Homo sapiens, A549, A549) | EC50 (A549; A549) | Structure (SMILES)
35 | ≥ 1000 nM | ≥ 1000 nM | – | CS(=O)(=O)c1ccc(-n2ncc3cc([C@H](O)COC4CCC4)cnc32)cc1 [Compound 121B]
36 | 100 to 1000 nM | 100 to 1000 nM | – | O[C@H](COC1CCC1)c1cnc2c(cnn2-c2ccc(N3CCCC3)cc2)c1 [Compound 75A]
37 | < 100 nM | < 100 nM | – | O=C(O)c1ccc(-n2ncc3cc([C@H](O)COC4CCCC4)cnc32)cc1 [Compound 89B]
38 | < 100 nM | 100 to 1000 nM | – | O[C@H](COC1CCC1)c1cnc2c(cnn2-c2ccc(-c3nnn[nH]3)cc2)c1 [Compound 79A]
39 | < 100 nM | 100 to 1000 nM | – | O=C(O)CCc1ccc(-n2ncc3cc([C@@H](O)COC4CCC4)cnc32)cc1F [Compound 82A]
40 | < 100 nM | 100 to 1000 nM | – | CC1(OC[C@H](O)c2cnc3c(cnn3-c3ccc(C(=O)O)cc3)c2)CCC1 [Compound 90A]
41 | < 100 nM | ≥ 1000 nM | – | CC1(OC[C@H](O)c2cnc3c(cnn3-c3ccc(C(=O)O)cc3)c2)CC1 [Compound 92A]
42 | 100 to 1000 nM | 100 to 1000 nM | – | CS(=O)(=O)c1ccc(-n2ncc3cc([C@@H](O)COC4CCC4)cnc32)cc1 [Compound 121A]
43 | ≥ 1000 nM | ≥ 1000 nM | – | O[C@@H](COC1CCC1)c1cnc2c(cnn2-c2ccc(N3CCCC3)cc2)c1 [Compound 75B]
44 | < 100 nM | < 100 nM | – | O[C@H](COC1CC1)c1cnc2c(cnn2-c2cccc(-c3nnc[nH]3)c2)c1 [Compound 37B]
45 | < 100 nM | < 100 nM | – | C[S+]([O-])c1ccc(-n2ncc3cc([C@@H](O)COC4CCC4)cnc32)cc1 (stereo partly shown) [Compound 124A]
46 | < 100 nM | 100 to 1000 nM | – | O=C(O)CCc1ccc(-n2ncc3cc([C@H](O)COC4CCCC4)cnc32)cc1F [Compound 88B]
47 | 100 to 1000 nM | ≥ 1000 nM | – | CNC(=O)c1ccc(-n2ncc3cc([C@@H](O)COC4CCC4)cnc32)cc1 [Compound 84B]
48 | ≥ 1000 nM | ≥ 1000 nM | – | CN(C)C(=O)c1cccc(-n2ncc3cc([C@H](O)COC4CCC4)cnc32)c1 [Compound 111B]
49 | 100 to 1000 nM | 100 to 1000 nM | – | C[C@@H](OC1CCC1)[C@@H](O)c1cnc2c(cnn2-c2ccc(C(=O)O)cc2)c1 [Compound 108B]
50 | < 100 nM | 100 to 1000 nM | – | CNC(=O)c1ccc(-n2ncc3cc([C@@H](O)COC(C)C)cnc32)cc1 [Compound 67B]
51 | 100 to 1000 nM | 100 to 1000 nM | – | CC(C)OC[C@@H](O)c1cnc2c(cnn2-c2ccc(CC(=O)O)cc2)c1 [Compound 71A]
52 | < 100 nM | 100 to 1000 nM | – | O[C@@H](COC1CCC1)c1cnc2c(cnn2-c2cccc(-c3nnc[nH]3)c2)c1 [Compound 24A]
53 | < 100 nM | < 100 nM | – | Cc1nn(-c2ccc(C(=O)O)cc2)c2ncc([C@H](O)COC3CCC3)cc12 [Compound 109B]
